Tested on: R223X stop codon in the mutated luciferase gene, ADXC8 luciferase reporter cell line
Experiment: cells
Assay type: cell-based
Settings: 24 h, ADXC8 cells, 24 hours; for Emax: read-out: Fold Over Control, maximum fold response relative to 200 μM G418; for EC (100% of 200 uM G418 response): read-out: pC100%, negative logarithm of the concentration giving the same response as 200 μM G418

Compound | Emax | EC (100% of 200 uM G418 response)
COC(=O)c1cnc2nc(NC3CCN(C)CC3)nc(N)c2c1 [Example 122, methyl 4-amino-2-[(1-methylpiperidin-4-yl)amino]pyrido[2,3-d]pyrimidine-6-carboxylate] | 0 to 100% | > 100 µM
CNc1ccnc2nc(NC3CCN(C)CC3)nc(N)c12 [Example 247] | 0 to 100% | > 100 µM
COc1ccc(CCN2CCC(Nc3nc(N)c4c(C)cc(C)nc4n3)CC2)cc1 [Example 201] | 100 to 3000% | 1 to 10 µM
Cc1c2c(nc3nc(NC4CCN(Cc5ccc(S(N)(=O)=O)cc5)CC4)nc(N)c13)CCC2 [Example 667] | 100 to 3000% | 1 to 10 µM
Cc1cc(C)c2c(N)nc(N[C@@H]3CNC[C@H]3F)nc2n1 [Example 297] | 100 to 3000% | 10 to 100 µM
Cc1cc(C)c2c(N)nc(NC3CCN(Cc4cocn4)CC3)nc2n1 [Example 472] | 100 to 3000% | 1 to 10 µM
Cc1cc(C)c2c(N)nc(NC3CCN(Cc4ccccc4C(F)F)CC3)nc2n1 [Example 493] | 100 to 3000% | 1 to 10 µM
COc1cc(C)nc2nc(N[C@@H]3CCN(C)C3)nc(N)c12 [Example 525, (R)-5-methoxy-7-methyl-N^2-(1-methylpyrrolidin-3-yl)pyrido[2,3-d]pyrimidine-2,4-diamine] | 100 to 3000% | 10 to 100 µM
Cc1cc(C)c2c(N)nc(NC3CCN(Cc4ccc(C(F)F)cc4)CC3)nc2n1 [Example 485] | 100 to 3000% | 1 to 10 µM
C#Cc1cnc2nc(NC3CCN(C)CC3)nc(N)c2c1 [Example 278] | 0 to 100% | > 31.6 µM
CN1CCC(Nc2nc(N(C)C)c3cccnc3n2)CC1 [Example 40, N^4,N^4-dimethyl-N^2-(1-methylpiperidin-4-yl)pyrido[2,3-d]pyrimidine-2,4-diamine] | 100 to 3000% | 10 to 100 µM
Cc1cc(C)c2c(N)nc(NC3CC4(CCNCC4)C3)nc2n1 [Example 200] | 0 to 100% | > 31.6 µM
Cc1cc(C)c2c(N)nc(N[C@@H]3CCNC[C@@H]3O)nc2n1 [Example 573] |  | 1 to 10 µM
Cc1cc(C)c2c(N)nc(NC3CCN(Cc4cccc(C(=O)N(C)C)c4)CC3)nc2n1 [Example 462] | 0 to 100% | > 31.6 µM
CNc1nc(N[C@H]2CNC[C@@H]2F)nc2nc(C)cc(C)c12 [Example 334] |  | 1 to 10 µM
CCCN1CCC(Nc2nc(N)c3c(C)cc(C)nc3n2)CC1 [Example 221] |  | 1 to 10 µM
COCC1CN(CCNc2nc(N)c3c(C)cc(C)nc3n2)C1 [Example 164] | 0 to 100% | > 31.6 µM
CN1CCC(Nc2nc(N)c3ccc(-c4ccn(C)n4)nc3n2)CC1 [Example 79] | 0 to 100% | > 100 µM
CNc1cc(N[C@H]2CN(C)C[C@@H]2O)nc2nc3c(c(C)c12)CCC3 [Example 425, (3S,4S)-1-methyl-4-((5-methyl-4-(methylamino)-7,8-dihydro-6H-cyclopenta[b][1,8]naphthyridin-2-yl)amino)pyrrolidin-3-ol] |  | 0.1 to 1 µM
CN1CCC(Nc2nc(N)c3ccc(-c4ccc(N)cc4)nc3n2)CC1 [Example 68] | 100 to 3000% | 10 to 100 µM
COC(C)c1cnc2nc(NC3CCN(C)CC3)nc(N)c2c1 (stereo not drawn) [Example 284] | 0 to 100% | > 31.6 µM
Cc1cc(C(C)C)nc2nc(NC3CCN(C)CC3)nc(N)c12 [Example 602] |  | 1 to 10 µM
CNc1nc(N[C@H]2C[C@@H](C)N(C)C2)nc2nc(C)cc(C)c12 [Example 371] | 100 to 3000% | 10 to 100 µM

Compound | Emax | EC (100% of 200 uM G418 response)
Cc1cc(C)c2c(N)nc(NCC3CCCN(C)C3)nc2n1 (stereo not drawn) [Example 174] | 100 to 3000% | 10 to 100 µM
COc1ccccc1CN1CCC(Nc2nc(N)c3c(C)cc(C)nc3n2)CC1 [Example 426, N^2-(1-(2-methoxybenzyl)piperidin-4-yl)-5,7-dimethylpyrido[2,3-d]pyrimidine-2,4-diamine] | 100 to 3000% | 1 to 10 µM
CNc1ccc2c(N)nc(NC3CCN(C)CC3)nc2n1 [Example 34, N^7-methyl-N2-(1-methylpiperidin-4-yl)pyrido[2,3-d]pyrimidine-2,4,7-triamine] | 100 to 3000% | 10 to 100 µM
Cc1cc(C)c2c(N)nc(NC3CCNC[C@@H]3F)nc2n1 (stereo partly drawn) [Example 206] | 100 to 3000% | 1 to 10 µM
CNC(=O)c1ccc(-c2ccc3c(N)nc(NC4CCN(C)CC4)nc3n2)cc1 [Example 77] | 0 to 100% | > 100 µM
CNc1nc(N[C@H]2CNC[C@@H]2F)nc2nc(C)c3c(c12)CCC3 [Example 346] | 100 to 3000% | 0.1 to 1 µM
Cc1cc(C)c2c(N)nc(NC3CCN(Cc4ccc(C#N)cc4O)CC3)nc2n1 [Example 567] | 100 to 3000% | 0.1 to 1 µM
CN1CCC(Nc2nc(N)c3ccc(-c4ccccc4C#N)nc3n2)CC1 [Example 118] |  | 10 to 100 µM
Cc1c2c(nc3nc(NC4CCN(Cc5cccnc5O)CC4)nc(N)c13)CCC2 [Example 664] | 0 to 100% | > 31.6 µM
CN(C)Cc1cccc(-c2ccc3c(N)nc(NC4CCN(C)CC4)nc3n2)c1 [Example 76] | 100 to 3000% | 10 to 100 µM
CC#Cc1ccnc2nc(NC3CCN(C)CC3)nc(N)c12 [Example 251, N^2-(1-methylpiperidin-4-yl)-5-(prop-1-yn-1-yl)pyrido[2,3-d]pyrimidine-2,4-diamine] | 100 to 3000% | 10 to 100 µM
CC(=O)Nc1ccc(CN2CCC(Nc3nc(N)c4c(C)cc(C)nc4n3)CC2)cc1 [Example 458] | 100 to 3000% | 10 to 100 µM
Cc1cc(C)c2c(N)nc(NC3CCCCN(C(=O)OC(C)(C)C)C3)nc2n1 (stereo not drawn) [Example 135] | 0 to 100% | > 100 µM
CNc1nc(N[C@@H]2CCN(C)C2)nc2nc(C)c3c(c12)CCC3 [Example 337] |  | 0.1 to 1 µM
Cc1cc(-c2ccccc2)nc2nc(NC3CCN(C)CC3)nc(N)c12 [Example 16, 5-methyl-N^2-(1-methylpiperidin-4-yl)-7-phenylpyrido[2,3-d]pyrimidine-2,4-diamine] |  | 0.1 to 1 µM
CN1CCC(Nc2nc(N)c3ccc(CO)nc3n2)CC1 [Example 299] | 0 to 100% | > 100 µM
Cc1cc(C)c2c(N)nc(NC3CCN(Cc4ccc(S(C)(=O)=O)cc4)CC3)nc2n1 [Example 497] | 100 to 3000% | 10 to 100 µM
CN1CCC(Nc2nc(N)c3ccc(-c4cncnc4)nc3n2)CC1 [Example 98] | 0 to 100% | > 100 µM
CN1CCC(Nc2nc(N)c3ccc(-c4ccncc4)nc3n2)CC1 [Example 111] |  | 10 to 100 µM
CN1CCC(Nc2nc(N)c3ccc(-c4ccccc4N)nc3n2)CC1 [Example 113] | 100 to 3000% | 10 to 100 µM
CC(O)c1ccnc2nc(NC3CCN(C)CC3)nc(N)c12 (stereo not drawn) [Example 308] | 0 to 100% | > 100 µM
COCC1CN(CCCNc2nc(N)c3c(C)cc(C)nc3n2)C1 [Example 188] | 0 to 100% | > 31.6 µM

Reference: patent publication US20260234144A1 (TAY THERAPEUTICS LIMITED, priority 2023, published 2026)
